# Reference: patent US20060088897A1, “Modulators” (priority 2003, published 2006)
# Key:
# Assay type in all cases: cell-based
# N1E-115 cells [1] = experiment: Microinjection of peptides into partially serum starved N1E-115 cells, phalloidin staining and confocal microscopy of cell morphology; conditions: FIG. 8A
# Experimental: (§1) Cells are starved for 2-3 h and then either injected with peptides (10 μg/ml) or exposed to peptides with bioporter reagent. Cells are incubated for a further 2 h before being stained with phalloiden and examined by confocal microscopy (as described in the materials and methods section). (A) The upper cells is injected with αP1 (a), or all cells injected with αP1*(b), or exposed to αP2 with bioporter reagent (c). […] Results are expressed as means+/−SEM of 3 experiments (n=333-426 cells). […] (D) Cells are exposed to bioporter reagent with αP2 and after 6 h double stained with αPAK and vinculin antibodies; (a) Vinculin/αPAK, (b) Vinculin and (c) αPAK. Bar=10 μM. Control bars are with IgG with bioporter/microinjection.
# (§2) Cells are starved for 2-3 h and then injected with peptides. Cells are then incubated for 2 h before being stained with phalloiden and examined by confocal microscopy (as described in the materials and methods section). (A) Cells are injected with IgG (a), with αP2 (b), with βP2 (c) and γP2 (d). Bar=10 μM. (B) Cells are exposed to bioporter with peptides and presence of neurites, pronounced filopodia and pronounced lamellipodia/ruffles scored (definitions as in FIG. 7). (C) Cells are either exposed to bioporter reagent coated peptides (αP2 and βP2) and then IGF or serum starvation used to activate cells. For γP2 cells are injected with peptide and stimulated with serum. Filopodia and lamellipodia are scored by using time-lapse phase contrast microscopy. +/−SEM of 3 experiments (n=900). Control peptide is taken from the kinase domain and common to the three PAK isoforms.
# Cells are plated out at 1.0×10^5 cells in 1 ml in a 35 mm dish containing 2 laminin coated coverslips. The coverslips are first marked with a grid using a fine permanent marker and then coated with laminin and incubated overnight in DMEM, 10% FCS, 1% AB/AM. The media is replaced with serum free media (DMEM, 1% AB/AM) and the cells starved for 1 hour so that they flattened and are easier to inject. The peptides are injected at 10 μg/ml in PBS, Rat IgG at 1 mg/ml is added to act as a marker for injected cells.
# The cells are injected using an Eppendorf microinjection apparatus on an Axioplan inverted microscope equipped with a heated stage maintained at 37° C. and a 5% CO2 chamber. Humidity is maintained by a dish of sterile water inside the CO2 chamber. Cells in a grid square are injected and positive injection checked visually at the time of injection or after fixation and staining for the injected marker. After injection the cells are returned to the incubator for a further 2 hours. Giving a total time without serum of 4 hours.
# The only difference between these two peptides being that the latter peptide is phosphorylated on serine and this modification prevents it from binding Nck (Zhao et al., 1998). To investigate the effects of peptides we first serum starve the cells for 2-4 h to activate Cdc42Hs and Rac.
# N1E-115 cells [2] = experiment: Peptide delivery with BioPorter reagent, scoring of neurites, filopodia and lamellipodia/ruffles
# Experimental: as §1, §2
# BioPorter regent is supplied as a dried powder and must be dissolved in a solvent before use. To each tube of BioPorter reagent 250 μl of methanol is added and the powder is re-suspended by vortexing for 10-20 seconds. 10 μl of the mix is transferred into new eppendorf tubes; the methanol is allowed to evaporate for 2 hours in a laminar flow hood. The dried reagent is stored at −20° C.
# Cells are plated out at 1.5×10^5 cells in a 35 mm dish containing 2 laminin-coated coverslips and incubated overnight. […]
# N1E-115 cells [3] = experiment: Double staining of peptide treated cells with vinculin and αPAK antibodies (focal complexes); conditions: FIG. 7D
# Experimental: as §1
# For in situ analysis primary/secondary antibodies are used at 1:100 dilution. PAK antibodies, all from Santa-Cruz, are as follows; αPAK N-20 (raised to rat amino acids 2-21), αPAK C-19 (raised to rat amino acids 525-544), βPAK (raised to mouse amino acids 2-20), γPAK (raised to human amino acids 2-20) and γPAK (raised to human amino acids 2-20). Vinculin, paxillin, phosphotyrosine are from Sigma. Integrin antibodies β1-integrin and α6-integrin a gift from A. Sonneberg, NCI, Netherlands. Bac1 cells are seeded onto coverslips and then grown for 24 h before the media is replaced with either CSF free, serum free, or CSF/serum free. […]
# N1E-115 cells [4] = experiment: Cell guidance assay at Laminin/CSPG boundary (axonal guidance)
# Experimental: Effect of PAK peptides on neurite morphology. Cells are exposed to control peptide, αP 1*, αP2, βP2, or γP2 and neurite morphology assessed. (B) Cells are plated on coverslips that been treated to create a Laminin/CSGP boundary. After 6 h cells are examined for their ability to project neurites that crossed the substrate boundary. Cells exposed to bioporter coated peptides, (a) αP2, (b) βP2, and (c) γP2. […] Results are means+/−SEM (n=161-263). (C) Cells are exposed to peptides and after 6 h are scored for their ability to cross boundary from Laminin to CSPG.
# The coverslips are washed and sterilised and then coated in one of the following ways.
# A second layer of laminin is applied as a drop mixed with 1 μg/ml TRITC label. Coverslips are left for 1 hour at RT and then rinsed twice with sterile water before allowing to dry before use. (iii) Attractive/repulsive boundary. Slides are coated with CSPG 5 μg/ml for 1 hour at 37° C. in a humid chamber then rinsed once in sterile H2O and allowed to air dry before the drop of laminin at 10 μg/ml is applied to the centre of the coverslip and left for 1 hour at RT before rinsing twice in sterile water and allowing to dry before use. This coating is also done in reverse with the laminin applied first and then the tenascin or the CSPG applied second.
# The cells are then seeded onto the prepared coverslips at 2×10^5 cells in 1 ml in a 35 mm petri dish, in DMEM, 10% FCS, and 1% AB/AM. Cells are allowed to attach overnight. The media is then removed and the coverslips rinsed in serum free media and incubated overnight (18 h) in serum free media. After the starvation the cells are fixed and stained to show the morphology of the cells at the boundary. Only neurites expressing neurofilamant are scored.
# After 5 minutes, the cells are washed once with serum free DMEM media and then 1 ml of serum free DMEM is added to the tube containing the peptide and BioPorter mix it is vortexed gently before being added to the cells. The cells are incubated for 4 hours at 37° C. After the 4 hour incubation the cells are then incubated for a further 2 hours in 5% FCS DMEM or for cells undergoing a substrate guidance assay the 2 hour incubation is in serum free DMEM. The cells are fixed and stained.
# Neurofilament positive neurites are scored for how they respond to Laminin/CSPG boundary. […] However, neurites do have distinct morphologies (FIG. 9A). Thus α, β and γ PAK are not essential for neurite outgrowth.
# N1E-115 cells [5] = experiment: Axonal guidance towards IGF (preliminary experiments); conditions: unpublished data
# Description: In preliminary experiments we have also examined the effect of the PAK peptides on axonal guidance towards IGF in N1E-115 cells.
sequence,measurement,setting,value
SNNGLDIQDKPPAPPMRNTS [αP2],"effect on formation of lamellipodia, filopodia or neurites concluded from microinjection",N1E-115 cells [1],synergise with both Cdc42 and Rac to produce neurites
same,neurite phenotype compared with αP1,N1E-115 cells [2]; FIG. 7B,neurites that are thinner and longer
same,percentage of cells possessing neurites compared with αP1,N1E-115 cells [2]; FIG. 7B,higher
same,optimal peptide concentration for the phenotypic changes,"N1E-115 cells [2]; dosage dependent effect, FIG. 7C",10 µg/mL
same,αPAK containing focal complexes (FC's) after peptide treatment,N1E-115 cells [3],leads to loss of FC's
same,ability to detect the Laminin/CSPG boundary,N1E-115 cells [4]; FIG. 9C,not affected
same,neurite morphology,"N1E-115 cells [4]; serum starved cells, FIG. 9A",indistinguishable from control cells
same,effect on axonal guidance towards IGF,N1E-115 cells [5],do not affect guidance
